Assay results from patent US20220089612A1, “HETEROCYCLIC COMPOUNDS AS PRMT5 INHIBITORS” (ANGEX PHARMACEUTICAL, INC., priority 2017, published 2022).

target: PRMT5:MEP50 (Homo sapiens, UniProt O14744); assay: PRMT5:MEP50 Flashplate Assay; type: biochemical; conditions: PRMT5:MEP50 inhibitory activity; 3H-SAM, 2 h at room temperature, top concentration 10 μM
Procedure: PRMT5:MEP50 Flashplate Assay:
Ten-point curves of inhibitor compounds were made using serial threefold dilutions in DMSO (the final top concentration of compound was 10 μM, 1% DMSO). Reaction mixture consisting of 50 mM Tris-HCl (pH 8.5), 0.002% Tween 20, 0.005% BSA (Bovine Serum Albumin), 1 mM TCEP, and 1% DMSO. Substrates are freshly prepared in reaction buffer. PRMT5:MEP50 was then added into substrate solution and mixed gently. Inhibitor compound was then added and incubated for 30 min at room temperature. ^3H-SAM was added to initiate the reaction. Reactions were incubated for 2 h at room temperature and quenched with 0.5 mM SAM (S-adenosyl-L-Methionine) in assay buffer. An aliquot of the reaction mix was transferred to a streptavidin-coated 384-well FlashPlate (PerkinElmer). After an incubation time of 1 h, the plate was washed and then read on a TopCount (PerkinElmer) to measure the amount of tritium incorporated into the peptide substrate. IC50 was calculated using conventional curve-fitting method.

PRMT5:MEP50, sequence (O14744 whole entry, species assumed): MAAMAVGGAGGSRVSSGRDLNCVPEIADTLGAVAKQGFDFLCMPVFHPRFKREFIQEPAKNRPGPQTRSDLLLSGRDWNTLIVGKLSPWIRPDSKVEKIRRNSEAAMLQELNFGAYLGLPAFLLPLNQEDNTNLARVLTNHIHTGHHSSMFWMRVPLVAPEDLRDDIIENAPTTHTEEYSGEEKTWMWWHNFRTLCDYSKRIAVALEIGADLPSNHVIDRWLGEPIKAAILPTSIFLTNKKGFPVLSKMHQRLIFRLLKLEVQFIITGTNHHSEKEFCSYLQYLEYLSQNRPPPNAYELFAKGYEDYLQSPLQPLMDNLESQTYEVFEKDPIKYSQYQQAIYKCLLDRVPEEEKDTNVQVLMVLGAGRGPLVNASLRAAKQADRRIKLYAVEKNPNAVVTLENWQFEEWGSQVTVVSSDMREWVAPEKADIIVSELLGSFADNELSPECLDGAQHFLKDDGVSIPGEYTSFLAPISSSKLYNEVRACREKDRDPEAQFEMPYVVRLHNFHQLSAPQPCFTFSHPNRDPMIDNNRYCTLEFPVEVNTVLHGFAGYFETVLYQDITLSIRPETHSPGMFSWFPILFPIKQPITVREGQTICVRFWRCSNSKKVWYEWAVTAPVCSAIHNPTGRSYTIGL
PRMT5:MEP50, sequence (Q9BQA1 whole entry partner, species assumed): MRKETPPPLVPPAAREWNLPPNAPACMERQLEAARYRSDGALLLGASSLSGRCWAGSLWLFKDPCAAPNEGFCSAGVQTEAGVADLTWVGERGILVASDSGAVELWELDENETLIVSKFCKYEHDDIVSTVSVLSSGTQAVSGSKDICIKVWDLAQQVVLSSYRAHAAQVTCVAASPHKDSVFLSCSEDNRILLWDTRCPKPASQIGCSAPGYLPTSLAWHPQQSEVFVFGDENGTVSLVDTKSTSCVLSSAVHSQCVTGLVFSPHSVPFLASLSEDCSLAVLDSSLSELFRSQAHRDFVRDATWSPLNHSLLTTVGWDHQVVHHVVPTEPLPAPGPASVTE

| IC50 [nM] | SMILES |
| --- | --- |
| < 1 | CC(C)[C@@H]1Cc2cc3ccc(CC[C@H]4C[C@@H](n5ccc6c(N)ncnc65)[C@H](O)[C@@H]4O)cc3nc2N1 [Compound 1-25, (1R,2S,3R,5S)-3-(4-amino-7H-pyrrolo[2,3-d]pyrimidin-7-yl)-5-(2-((S)-2-isopropyl-2,3-dihydro-1H-pyrrolo[2,3-b]quinolin-7-yl)ethyl)cyclopentane-1,2-diol] |
| < 1 | CC1(C)CNc2nc3cc(CC[C@H]4C[C@@H](n5ccc6c(N)ncnc65)[C@H](O)[C@@H]4O)ccc3cc21 [Compound 2-3, (1R,2S,3R,5S)-3-(4-amino-7H-pyrrolo[2,3-d]pyrimidin-7-yl)-5-(2-(3,3-dimethyl-2,3-dihydro-1H-pyrrolo[2,3-b]quinolin-7-yl)ethyl)cyclopentane-1,2-diol] |
| < 1 | Nc1ncnc2c1ccn2[C@@H]1C[C@H](CCc2ccc3cc4c(nc3c2)NC2(CC2)C4)[C@@H](O)[C@H]1O [Compound 1-31, (1R,2S,3R,5S)-3-(4-amino-7H-pyrrolo[2,3-d]pyrimidin-7-yl)-5-(2-(1′,3′-dihydrospiro[cyclopropane-1,2′-pyrrolo[2,3-b]quinolin]-7′-yl)ethyl)cyclopentane-1,2-diol] |
| < 1 | Nc1ncnc2c1ccn2[C@@H]1O[C@H](CCc2ccc3cc4c(nc3c2)NCCC4)[C@@H](O)[C@H]1O [Compound 3-13, (2R,3R,4S,5R)-2-(4-amino-7H-pyrrolo[2,3-d]pyrimidin-7-yl)-5-(2-(1,2,3,4-tetrahydrobenzo[b][1,8]naphthyridin-8-yl)ethyl)tetrahydrofuran-3,4-diol] |
| < 1 | Nc1ncnc2c1ccn2[C@@H]1C[C@H](CCc2ccc3cc4c(nc3c2)NCCC4)[C@@H](O)[C@H]1O [Compound 1-35, (1R,2S,3R,5S)-3-(4-amino-7H-pyrrolo[2,3-d]pyrimidin-7-yl)-5-(2-(1,2,3,4-tetrahydrobenzo[b][1,8]naphthyridin-8-yl)ethyl)cyclopentane-1,2-diol] |
| 1 to 100 | Nc1ncnc2c1ccn2[C@@H]1C[C@H](CCc2ccc3cc4c(nc3c2)N[C@H](C2CCC2)CC4)[C@@H](O)[C@H]1O [Compound 1-40, (1R,2S,3R,5S)-3-(4-amino-7H-pyrrolo[2,3-d]pyrimidin-7-yl)-5-(2-((S)-2-cyclobutyl-1,2,3,4-tetrahydrobenzo[b][1,8]naphthyridin-8-yl)ethyl)cyclopentane-1,2-diol] |
| 1 to 100 | Nc1ncnc2c1ccn2[C@@H]1O[C@H](CCc2ccc3cc4c(nc3c2)NCC4)[C@@H](O)[C@H]1O [Compound 3-8, (2R,3R,4S,5R)-2-(4-amino-7H-pyrrolo[2,3-d]pyrimidin-7-yl)-5-(2-(2,3-dihydro-1H-pyrrolo[2,3-b]quinolin-7-yl)ethyl)tetrahydrofuran-3,4-diol] |
| < 1 | CC[C@@H]1Cc2cc3ccc(CC[C@H]4C[C@@H](n5ccc6c(N)ncnc65)[C@H](O)[C@@H]4O)cc3nc2N1 [Compound 1-24, (1R,2S,3R,5S)-3-(4-amino-7H-pyrrolo[2,3-d]pyrimidin-7-yl)-5-(2-((R)-2-ethyl-2,3-dihydro-1H-pyrrolo[2,3-b]quinolin-7-yl)ethyl)cyclopentane-1,2-diol] |
| < 1 | Nc1ncnc2c1ccn2[C@@H]1C[C@H](CCc2ccc3cc4c(nc3c2)N[C@H](C2CC2)C4)[C@@H](O)[C@H]1O [Compound 1-22, (1R,2S,3R,5S)-3-(4-amino-7H-pyrrolo[2,3-d]pyrimidin-7-yl)-5-(2-((S)-2-cyclopropyl-2,3-dihydro-1H-pyrrolo[2,3-b]quinolin-7-yl)ethyl)cyclopentane-1,2-diol] |
| < 1 | Nc1ncnc2c1ccn2[C@@H]1C[C@H](CCc2ccc3cc4c(nc3c2)NOC4)[C@@H](O)[C@H]1O [Compound 1-14, (1R,2S,3R,5S)-3-(4-amino-7H-pyrrolo[2,3-d]pyrimidin-7-yl)-5-(2-(1,3-dihydroisoxazolo[3,4-b]quinolin-7-yl)ethyl)cyclopentane-1,2-diol] |
| 1 to 100 | Nc1ncnc2c1ccn2[C@@H]1O[C@H](CCc2ccc3c(c2)nc(N)n2ccnc32)[C@@H](O)[C@H]1O [Compound 3-11, (2R,3R,4S,5R)-2-(4-amino-7H-pyrrolo[2,3-d]pyrimidin-7-yl)-5-(2-(5-aminoimidazo-[1,2-c]quinazolin-8-yl)ethyl)tetrahydrofuran-3,4-diol] |
| 1 to 100 | Nc1ncnc2c1ccn2[C@@H]1C[C@H](CCc2ccc3cc4cc[nH]c4nc3c2)[C@@H](O)[C@H]1O [Compound 4-3, (1S,2R,3S,5R)-3-(2-(1H-pyrrolo[2,3-b]quinolin-7-yl)ethyl)-5-(4-amino-7H-pyrrolo[2,3-d]pyrimidin-7-yl)cyclopentane-1,2-diol] |
| < 1 | CC1(C)Cc2cc3ccc(CC[C@H]4C[C@@H](n5ccc6c(N)ncnc65)[C@H](O)[C@@H]4O)cc3nc2N1 [Compound 1-30, (1R,2S,3R,5S)-3-(4-amino-7H-pyrrolo[2,3-d]pyrimidin-7-yl)-5-(2-(2,2-dimethyl-2,3-dihydro-1H-pyrrolo[2,3-b]quinolin-7-yl)ethyl)cyclopentane-1,2-diol] |
| 1 to 100 | Nc1ncnc2c1ccn2[C@@H]1C[C@H](CCc2ccc3cc4cn[nH]c4nc3c2)[C@@H](O)[C@H]1O [Compound 1-12, (1S,2R,3S,5R)-3-(2-(1H-pyrazolo[3,4-b]quinolin-7-yl)ethyl)-5-(4-amino-7H-pyrrolo-[2,3-d]pyrimidin-7-yl)cyclopentane-1,2-diol] |
| < 1 | NC1=Nc2cc(CC[C@H]3C[C@@H](n4ccc5c(N)ncnc54)[C@H](O)[C@@H]3O)ccc2C2=NCCN12 [Compound 1-8, (1S,2R,3S,5R)-3-(2-(5-amino-2,3-dihydroimidazo[1,2-c]quinazolin-8-yl)ethyl)-5-(4-amino-7H-pyrrolo[2,3-d]pyrimidin-7-yl)cyclopentane-1,2-diol] |
| < 1 | C[C@@H]1Cc2cc3ccc(CC[C@H]4C[C@@H](n5ccc6c(N)ncnc65)[C@H](O)[C@@H]4O)cc3nc2N1 [Compound 1-21, (1R,2S,3R,5S)-3-(4-amino-7H-pyrrolo[2,3-d]pyrimidin-7-yl)-5-(2-((R)-2-methyl-2,3-dihydro-1H-pyrrolo[2,3-b]quinolin-7-yl)ethyl)cyclopentane-1,2-diol] |
| < 1 | NC1=Nc2cc(CC[C@H]3C[C@@H](n4ccc5c(N)ncnc54)[C@H](O)[C@@H]3O)ccc2[C@@H]2C[C@H]12 (single isomer, unassigned) [Compound 1-10] |
| < 1 | NC1=Nc2cc(CC[C@H]3C[C@@H](n4ccc5c(N)ncnc54)[C@H](O)[C@@H]3O)ccc2[C@H]2C[C@@H]12 (single isomer, unassigned) [Compound 1-11] |
| < 1 | C[C@H]1Cc2cc3ccc(CC[C@H]4C[C@@H](n5ccc6c(N)ncnc65)[C@H](O)[C@@H]4O)cc3nc2N1 [Compound 1-20, (1R,2S,3R,5S)-3-(4-amino-7H-pyrrolo[2,3-d]pyrimidin-7-yl)-5-(2-((S)-2-methyl-2,3-dihydro-1H-pyrrolo[2,3-b]quinolin-7-yl)ethyl)cyclopentane-1,2-diol] |
| < 1 | Nc1ncnc2c1ccn2[C@@H]1C[C@H](CCc2ccc3cc4nc[nH]c4nc3c2)[C@@H](O)[C@H]1O [Compound 1-18, (1S,2R,3S,5R)-3-(2-(3H-imidazo[4,5-b]quinolin-6-yl)ethyl)-5-(4-amino-7H-pyrrolo[2,3-d]pyrimidin-7-yl)cyclopentane-1,2-diol] |
